# System: RT112-FGFR3-V555M cells
# Experiment: Inhibition of proliferation activity of RT112-FGFR3-V555M cells (CellTiter-Glo)
# Type: cell-based
# Details: 72 h, read-out: IC50 (nM) RT112-FGFR3-V555M
# Description: The present experiment used CellTiter-Glo® Luminescent Cell Viability Assay (Promega: G7573) kit, which was a homogeneous cell viability detection method and determined the cell viability of cultured cells by quantifying ATP. • ① RT112-FGFR3-V555M cells were cultured in MEM complete medium (Gibco: 51200038) (10% FBS (Gibco: 10091-148)+1% Pen Strep (Gibco: 15140122)+1% NEAA (Gibco: 11140050)) under the condition of 37°C and 5% CO2. • (2) The cells in logarithmic growth phase were harvested and counted using a […]. The trypan blue exclusion method was used to detect cell viability to ensure the cell viability was above 90%. • ③ The cell density was adjusted using MEM complete medium, and then, the cells were seeded into a 96-well cell culture plate at 90 µL/well with a total of 5000 cells. • ④ The 96-well plate with the cells was placed under the condition of 37°C and 5% CO2 to be cultured for 24 hours. • ⑤ 24 hours later, a 10-fold drug solution was prepared starting from a maximum drug concentration of 10 µM and 4-fold serially diluted into10 concentrations. Then, 10 µL of each of the serially diluted compounds was transferred to the corresponding experimental wells of a 96-well cell plate, with two replicates for each drug concentration. • ⑥ The 96-well plate with the cells that had been treated with the drugs was placed under the condition of 37°C and 5% CO2 to be further cultured for 72 hours, and then analyzed by CTG. • ⑦ The CTG reagent was melted and the cell plate was equilibrated to room temperature for 30 minutes. • ⑧ 50 µL of the CTG solution was added to each well. • ⑨ The cell plate was shaken on an orbital shaker for 5 minutes to lyse the cells. • ⑩ The cell plate was placed at room temperature for 20 minutes to stabilize the luminescence signal. The luminescence values were read to collect the data. • ⑪ The data were analyzed using XLFit excel plugin version 5.5.0.5, and fitted with non-linear S-curve regression to obtain the dose-response curves and thus calculate the IC50 values. Y = Bottom + (Top-Bottom)/((1+(IC50/X))^(∧) HillSlope [formula]
# "Top" refers to the maximum response, "Bottom" refers to the minimum response, and "HillSlope" refers to the slope of the curve.
# "Max" represents the average value of the cell+DMSO control, and "Min" represents the average value of the medium control+DMSO.
row,SMILES,IC50 [nM]
1,"C[C@@H](Oc1ccc2[nH]nc(-c3ccc(S(C)(=N)=O)nc3)c2c1)c1c(Cl)cncc1Cl (stereo partly drawn) [Comparative Example 85, (5-(5-((R)-1-(3,5-dichloropyridin-4-yl)ethoxy)-1H-indazol-3-yl)pyridin-2-yl)(imino)(methyl)-sulfanone, reference compound]",334

# Same assay, conditions: RT112-FGFR3-V555M cells, 72 hours, CTG; read-out: IC50 (nM) RT112-FGFR3-V555M
row,SMILES,IC50 [nM]
1,"Cc1cc2nccnc2c(C(C)Oc2ccc3[nH]nc(-c4cnn(C)c4)c3c2)n1 (stereo not drawn) [Example 183, 7-methyl-5-(1-((3-(1-methyl-1H-pyrazol-4-yl)-1H-indazol-5-yl)oxy)ethyl)pyridino [3,4-b]pyrazine]",10.4
2,"CC(Oc1cc2c(-c3cnn(C)c3)n[nH]c2cc1F)c1cc(Cl)cc2nccnc12 (stereo not drawn) [Example 227, 7-chloro-5-(1-((6-fluoro-3-(1-methyl-1H-pyrazol-4-yl)-1H-indazol-5-yl)oxy)ethyl)qu inoxaline]",128
3,"CC(Oc1ccc2[nH]nc(-c3cnn(C)c3)c2c1)c1nc(C(F)F)cc2nccnc12 (stereo not drawn) [Example 236, 7-(difluoromethyl)-5-(1-((3-(1-methyl-1H-pyrazol-4-yl)-1H-indazol-5-yl)oxy)ethyl)pyridino[3,4-b]pyrazine]",38.9
4,"CC(Oc1ccc2[nH]nc(-c3cnn(C)c3)c2c1)c1cc(Cl)cc2nccnc12 (stereo not drawn) [Example 136, 7-chloro-5-(1-((3-(1-methyl-1H-pyrazol-4-yl)-1H-indazol-5-yl)oxy)ethyl)qu inoxaline]",119
5,"CC(Oc1ccc2[nH]nc(-c3cnn(C)c3)c2c1)c1c(C(F)F)ccc2ncccc12 (stereo not drawn) [Example 127, 6-(difluoromethyl)-5-(1-((3-(1-methyl-1H-pyrazol-4-yl)-1H-indazol-5-yl)oxy)ethyl)quinoline]",118
6,"Cc1ccc2ncccc2c1C(C)Oc1ccc2[nH]nc(-c3cnn(C)c3)c2c1 (stereo not drawn) [Example 95, 6-methyl-5-(1-((3-(1-methyl-1H-pyrazol-4-yl)-1H-indazol-5-yl)oxy)ethyl)quinolinee]",110
7,"CC(=O)N1CC(n2cc(-c3n[nH]c4ccc(OC(C)c5cccc6nccnc56)cc34)cn2)C1 (stereo not drawn) [Example 218, 1-(3-(4-(5-(1-(quinoxalin-5-yl)ethoxy)-1H-indazol-3-yl)-1H-pyrazol-1-yl)azetidin-1-yl)ethan-1-one]",64.7
8,"CC(Oc1ccc2[nH]nc(-c3cnn(C)c3)c2c1)c1c(CF)ccc2ncccc12 (stereo not drawn) [Example 130, 6-(fluoromethyl)-5-(1-((3-(1-methyl-1H-pyrazol-4-yl)-1H-indazol-5-yl)oxy)ethyl)q uinoline]",152
9,[2H]C([2H])([2H])c1cc2nccnc2c(C(C)Oc2ccc3[nH]nc(-c4cnn(C)c4)c3c2)n1 (stereo not drawn) [Example 241],18.2
10,"CC(Oc1ccc2[nH]nc(-c3cnn(C4CN(C(=O)C(C)(C)O)C4)c3)c2c1)c1cccc2nccnc12 (stereo not drawn) [Example 190, 2-hydroxy-2-methyl-1-(3-(4-(5-(1-(quinoxalin-5-yl)ethoxy)-1H-indazol-3-yl)-1H-pyrazol-1-yl)azetidin-1-yl)propan-1-one]",81.6
11,"COCC(=O)N1CC(n2cc(-c3n[nH]c4ccc(OC(C)c5cccc6nccnc56)cc34)cn2)C1 (stereo not drawn) [Example 188, 2-methoxy-1-(3-(4-(5-(1-(quinoxalin-5-yl)ethoxy)-1H-indazol-3-yl)-1H-pyrazol-1-yl)azetidin-1-yl)ethan-1-one]",70.1

# Source: patent EP4644383A1 (Jiangsu Yahong Meditech Co., Ltd., priority 2022, dated 2024)
